From patent US12012417B2, “N-substituted tetrahydrothienopyridine derivatives and uses thereof” (NOVARTIS AG, priority 2018, dated 2024)

How the values were obtained:
[1] = tested on: Dengue 1 virus MY97-10245; assay: High-content imaging cell-based flavivirus immunodetection (HCl-CFI) assay, Dengue 1; conditions: Dengue virus, A549, 48 h, read-out: Dengue 1 virus MY97-10245 in A549 using HCl [Inhibitor/IC50] Qualified AC50
[2] = tested on: Dengue 4 virus MY01-22713; assay: High-content imaging cell-based flavivirus immunodetection (HCl-CFI) assay, Dengue 4; conditions: Dengue virus, A549, 48 h, read-out: Dengue 4 virus MY01-22713 in A549 using HCl [Inhibitor/IC50] Qualified AC50, A549 cells, 48 h, viral E protein expression
[3] = tested on: Dengue 2 virus MY97-10340; assay: High-content imaging cell-based flavivirus immunodetection (HCl-CFI) assay, Dengue 2; conditions: Dengue virus, A549, 48 h, read-out: Dengue 2 virus MY97-10340 in A549 using HCl [Inhibitor/IC50] Qualified AC50, A549 cells, MOI 0.3, 48 h, viral E protein expression
Description: High-Content Imaging Cell-Based Flavivirus Immunodetection (HCl-CFI) Assay
A549 cells (7×10^3 cells per well) in a 384-well plate were infected with the DENV-2 (MY97-10340) strain at an MOI of 0.3. The cells were then treated with 3-fold, 10-point serial dilutions of test compound. After 48 h, the cells were fixed with paraformadehyde, and the viral E protein detected with 4G2 antibody labeled with Dylight™ 488 (GenScript). Cell nuclei were stained with Draq5 (Pierce/Thermo), and images were taken on the Opera imaging system (Perkin Elmer). A dose-response curve was plotted to calculate the effective concentration of compound needed to reduce expression of E protein by 50% (EC50) using GraphPad Prism.
The resulted EC50 values are summarized in Table 1 below: ±≥1 μM; 1 μM>++≥0.1 μM; 0.1 μm>+++

[4] = tested on: Dengue 3 virus MY05-34640-WT-C6/36; assay: High-content imaging cell-based flavivirus immunodetection (HCl-CFI) assay, Dengue 3; conditions: Dengue virus, A549, 48 h, read-out: Dengue 3 virus MY05-34640-WT-C6/36 in A549 using HCl [Inhibitor/IC50] Qualified AC50

Row | Structure (SMILES) | EC50 [1] [nM] | EC50 [2] [nM] | EC50 [3] [nM] | EC50 [4] [nM]
1 | COc1ccccc1CN1CCc2c(sc(NC(=O)Cc3ccc(S(N)(=O)=O)cc3)c2C#N)C1 [Example 94, N-(3-cyano-6-(2-methoxybenzyl)-4,5,6,7-tetrahydrothieno[2,3-c]pyridin-2-yl)-2-(4-sulfamoylphenyl) acetamide] | > 1000 | 100 to 1000 | > 1000 | 100 to 1000
2 | N#Cc1c(NC(=O)Cc2ccc(S(N)(=O)=O)cc2)sc2c1CCN(Cc1cc(F)ccc1F)C2 [Example 113, N-(3-cyano-6-(2,5-difluorobenzyl)-4,5,6,7-tetrahydrothieno[2,3-c]pyridin-2-yl)-2-(4-sulfamoylphenyl)acetamide] | 100 to 1000 | < 100 | < 100 | < 100
3 | CC1(C)CS(=O)(=O)c2ccc(CC(=O)Nc3sc4c(c3C#N)CN(Cc3cccc(F)c3)C(C)(C)C4)cc21 [Example 80, N-(3-cyano-5-(3-fluorobenzyl)-6,6-dimethyl-4,5,6,7-tetrahydrothieno[3,2-c]pyridin-2-yl)-2-(3,3-dimethyl-1,1-dioxido-2,3-dihydrobenzo[b]thiophen-5-yl)acetamide] | 100 to 1000 | < 100 | < 100 | < 100
4 | CC(C1CCCCC1)N1CCc2sc(NC(=O)Cc3ccc(S(N)(=O)=O)cc3)c(C#N)c2C1 (stereo not drawn) [Example 3, N-(3-cyano-5-(1-cyclohexylethyl)-4,5,6,7-tetrahydrothieno[3,2-c]pyridin-2-yl)-2-(4-sulfamoylphenyl)acetamide] | 100 to 1000 | < 100 | < 100 | < 100
5 | COc1cc(CC(=O)N(C)c2sc3c(c2C#N)CN(CC2CCCCC2)CC3)ccc1S(N)(=O)=O [Example 48, N-(3-cyano-5-(cyclohexylmethyl)-4,5,6,7-tetrahydrothieno[3,2-c]pyridin-2-yl)-2-(3-methoxy-4-sulfamoylphenyl)-N-methylacetamide] | > 1000 | > 1000 | > 1000 | > 1000
6 | CC1(C)Cc2sc(NC(=O)Cc3ccc(S(N)(=O)=O)cc3)c(C#N)c2CN1Cc1cccc(F)c1 [Example 81, N-(3-cyano-5-(3-fluorobenzyl)-6,6-dimethyl-4,5,6,7-tetrahydrothieno[3,2-c]pyridin-2-yl)-2-(4-sulfamoylphenyl)acetamide] | 100 to 1000 | < 100 | < 100 | < 100
7 | N#Cc1c(NC(=O)Cc2ccc(S(N)(=O)=O)cc2)sc2c1CCN(Cc1ccccc1F)C2 [Example 99, N-(3-cyano-6-(2-fluorobenzyl)-4,5,6,7-tetrahydrothieno[2,3-c]pyridin-2-yl)-2-(4-sulfamoylphenyl)acetamide] | > 1000 | 100 to 1000 | 100 to 1000 | 100 to 1000
8 | N#Cc1c(NC(=O)Cc2ccc(S(N)(=O)=O)c(F)c2)sc2c1CN(Cc1cccc(F)c1)CC2 [Example 43, N-(3-cyano-5-(3-fluorobenzyl)-4,5,6,7-tetrahydrothieno[3,2-c]pyridin-2-yl)-2-(3-fluoro-4-sulfamoylphenyl)acetamide] | 100 to 1000 | < 100 | < 100 | < 100
9 | CCOc1cc(CC(=O)Nc2sc3c(c2C#N)CN(Cc2cccc(F)c2)CC3)ccc1S(C)(=O)=O [Example 37, N-(3-cyano-5-(3-fluorobenzyl)-4,5,6,7-tetrahydrothieno[3,2-c]pyridin-2-yl)-2-(3-ethoxy-4-(methylsulfonyl)phenyl)acetamide] | 100 to 1000 | < 100 | < 100 | < 100
10 | CC1Cc2sc(NC(=O)Cc3ccc(S(N)(=O)=O)cc3)c(C#N)c2CN1CCc1ccccc1 (stereo not drawn) [Example 67, N-(3-cyano-6-methyl-5-phenethyl-4,5,6,7-tetrahydrothieno[3,2-c]pyridin-2-yl)-2-(4-sulfamoylphenyl)acetamide] | > 1000 | < 100 | < 100 | < 100
11 | COc1cc(CC(=O)Nc2sc3c(c2C#N)CN(Cc2cccc(F)c2)CC3)ccc1S(C)(=O)=O [Example 30, N-(3-cyano-5-(3-fluorobenzyl)-4,5,6,7-tetrahydrothieno[3,2-c]pyridin-2-yl)-2-(3-methoxy-4-(methylsulfonyl)phenyl)acetamide] | 100 to 1000 | < 100 | < 100 | < 100
12 | COc1cc(CC(=O)Nc2sc3c(c2C#N)CN(CC2CCCCC2)CC3)ccc1S(C)(=O)=O [Example 10, N-(3-cyano-5-(cyclohexylmethyl)-4,5,6,7-tetrahydrothieno[3,2-c]pyridin-2-yl)-2-(3-methoxy-4-(methylsulfonyl)phenyl)acetamide] | 100 to 1000 | < 100 | < 100 | < 100
13 | Cc1ccccc1CN1CCc2c(sc(NC(=O)Cc3ccc(S(C)(=O)=O)cc3)c2C#N)C1 [Example 103, N-(3-cyano-6-(2-methylbenzyl)-4,5,6,7-tetrahydrothieno[2,3-c]pyridin-2-yl)-2-(4-(methylsulfonyl)phenyl)acetamide] | 100 to 1000 | 100 to 1000 | 100 to 1000 | 100 to 1000
14 | CN(C(=O)Cc1ccc(S(N)(=O)=O)cc1)c1sc2c(c1C#N)CN(CC1CCCCC1)C(C)(C)C2 [Example 75, N-(3-cyano-5-(cyclohexylmethyl)-6,6-dimethyl-4,5,6,7-tetrahydrothieno[3,2-c]pyridin-2-yl)-N-methyl-2-(4-sulfamoylphenyl)acetamide] | > 1000 | > 1000 | > 1000 | > 1000
15 | CCOc1cc(CC(=O)Nc2sc3c(c2C#N)CN(Cc2cccc(F)c2)CC3)ccc1S(N)(=O)=O [Example 21, N-(3-cyano-5-(3-fluorobenzyl)-4,5,6,7-tetrahydrothieno[3,2-c]pyridin-2-yl)-2-(3-ethoxy-4-sulfamoylphenyl)acetamide] | < 100 | < 100 | < 100 | < 100
16 | CC1Cc2sc(NC(=O)Cc3ccc(S(N)(=O)=O)cc3)c(C#N)c2CN1CC1CCC1 (stereo not drawn) [Example 60, N-(3-cyano-5-(cyclobutylmethyl)-6-methyl-4,5,6,7-tetrahydrothieno[3,2-c]pyridin-2-yl)-2-(4-sulfamoylphenyl)acetamide] | > 1000 | 100 to 1000 | 100 to 1000 | 100 to 1000
17 | CC1Cc2sc(NC(=O)Cc3ccc(S(=O)(=O)NCC4CCCC4)cc3)c(C#N)c2CN1CC1CCCC1 (stereo not drawn) [Example 61, N-(3-cyano-5-(cyclopentylmethyl)-6-methyl-4,5,6,7-tetrahydrothieno[3,2-c]pyridin-2-yl)-2-(4-(N-(cyclopentylmethyl)sulfamoyl)phenyl)acetamide] | > 1000 | > 1000 | 100 to 1000 | > 1000
18 | CS(=O)(=O)c1ccc(CC(=O)Nc2sc3c(c2C#N)CN(Cc2cccc(F)c2)CC3)cc1C#N [Example 27, 2-(3-cyano-4-(methylsulfonyl)phenyl)-N-(3-cyano-5-(3-fluorobenzyl)-4,5,6,7-tetrahydrothieno[3,2-c]pyridin-2-yl)acetamide] | 100 to 1000 | < 100 | < 100 | < 100
